Counter-ions that a name gives are not always drawn. Like-named read-outs stand apart in the source and are kept apart here.

From patent publication US4229584A, “Ureylenebis(anionic substituted phenylene carbonyl)imino naphthalene sulfonic acids and naphthalene carboxylic acids and their salts” (American Cyanamid Company, priority 1978, dated 1980) come the findings set out here.

Assay [1] relates to late components of human complement (C3-C9). Put plainly: Test, Code 035 (C3-C9 inhibitor): lysis of EAC 142 by late components of human complement. It is filed as cell-based. The note with it: activity in wells, twofold serial dilution; higher well number indicates higher activity. From the text:
(§1) An active inhibitor protects C2 from C1 and C4; (ii) Test, Code 035 (C3-C9 inhibitor)--This test determines the ability of the late components of human complement (C3-C9) to lyse EAC 142 in the presence of appropriate dilutions of the test compound. An active inhibitor protects EAC 142 from lysis by human C3-C9; (iii) Test, Code 036 (C-Shunt inhibitor)--In this test human erythrocytes rendered fragile are lysed in autologous serum via the shunt pathway activated by cobra venom factor in the presence of appropriate dilutions of the test compound. Inhibition of the shunt pathway results in failure of lysis; (iv) Forssman Vasculitis Test--Here, the well known complement dependent lesion, Forssman vasculitis, is produced in guinea pigs by intradermal injection of rabbit anti-Forssman antiserum. The lesion is measured in terms of diameter, edema and hemorrhage and the extent to which a combined index of these is inhibited by prior intraperitoneal injection of the test compound at 200 mg/kg is then reported, unless otherwise stated; (v) Forssman Shock Test--Lethal shock is produced in guinea pigs by an i.v. injection of anti-Forssman antiserum and the harmonic mean death time of treated guinea pigs is compared with that of simultaneous controls; (vi) Complement Level Reduction Test--In this test, the above dosed guinea pigs, or others, are bled for serum and the complement level is determined in undiluted serum by the capillary tube method of U.S. Pat. No. 3,876,376 and compared to undosed control guinea pigs; and (vii) Cap 50 Test--Here, appropriate amounts of the test compound are added to a pool of guinea pig serum in vitro, after which the undiluted serum capillary tube assay referred to above is run. The concentration of compound inhibiting 50% is reported.
(§2) **Activity in wells, a serial dilution assay. Higher well number indicate
(§3) higher activity. The serial dilutions are twofold.

A further assay has as its system whole complement. Put plainly: In vivo complement inhibition in guinea pigs (whole complement of serum, capillary tube assay). The note with it: for change in vivo at 200 mg/kg: Cavia porcellus, ip. Also noted: species or system guinea pig.
Description: as §1
With reference to Table I, guinea pigs weighing about 300 g were dosed intravenously (i.v.) or intraperitoneally (i.p.) with 200 mg/kg of the test compound dissolved in saline and adjusted to pH 7-8. […] The serum was tested for whole complement using the capillary tube assay. Percent inhibition was calculated by comparison with simultaneous controls. The results appear in Table I together with results of tests, Code 026, 035, 036, Cap 50, percent inhibition and Forssman shock.

For a further assay, the system named is shunt pathway. Put plainly: Test, Code 036 (C-Shunt inhibitor): lysis of human erythrocytes in autologous serum via shunt pathway activated by cobra venom factor. The settings on record: activity in wells, twofold serial dilution; higher well number indicates higher activity. Type of assay: cell-based.
Description: as §1, §2, §3

The next assay concerns the target T1, human C1 (Homo sapiens, UniProt P09871).
T1 construct: substrate fluid phase human C2, in presence of C4
Put plainly: Test, Code 026 (C1 inhibitor): protection of fluid phase human C2 from activated human C1. It is filed as biochemical. The settings on record: activity in wells, twofold serial dilution; higher well number indicates higher activity.
Description: as §1, §2, §3

Where [2] appears, read: 0.5 h, read-out: In Vivo Activity (Guinea Pig) % Inhibition Intraperitoneal 30 mins.
[3] abbreviates: 1 h, read-out: In Vivo Activity (Guinea Pig) % Inhibition Intraperitoneal 60 mins.
Setting [4] is: 2 h, read-out: In Vivo Activity (Guinea Pig) % Inhibition Intraperitoneal 120 mins.
Where [5] appears, read: 0.5 h, intraperitoneal, 200 mg/kg, 30 mins., read-out: In Vivo Activity (Guinea Pig) % Inhibition Intraperitoneal 30 mins.
[6] abbreviates: 1 h, intraperitoneal, 200 mg/kg, 60 mins., read-out: In Vivo Activity (Guinea Pig) % Inhibition Intraperitoneal 60 mins.
Where [7] appears, read: 2 h, intraperitoneal, 200 mg/kg, 120 mins., read-out: In Vivo Activity (Guinea Pig) % Inhibition Intraperitoneal 120 mins.

T1 sequence (P09871 16-688): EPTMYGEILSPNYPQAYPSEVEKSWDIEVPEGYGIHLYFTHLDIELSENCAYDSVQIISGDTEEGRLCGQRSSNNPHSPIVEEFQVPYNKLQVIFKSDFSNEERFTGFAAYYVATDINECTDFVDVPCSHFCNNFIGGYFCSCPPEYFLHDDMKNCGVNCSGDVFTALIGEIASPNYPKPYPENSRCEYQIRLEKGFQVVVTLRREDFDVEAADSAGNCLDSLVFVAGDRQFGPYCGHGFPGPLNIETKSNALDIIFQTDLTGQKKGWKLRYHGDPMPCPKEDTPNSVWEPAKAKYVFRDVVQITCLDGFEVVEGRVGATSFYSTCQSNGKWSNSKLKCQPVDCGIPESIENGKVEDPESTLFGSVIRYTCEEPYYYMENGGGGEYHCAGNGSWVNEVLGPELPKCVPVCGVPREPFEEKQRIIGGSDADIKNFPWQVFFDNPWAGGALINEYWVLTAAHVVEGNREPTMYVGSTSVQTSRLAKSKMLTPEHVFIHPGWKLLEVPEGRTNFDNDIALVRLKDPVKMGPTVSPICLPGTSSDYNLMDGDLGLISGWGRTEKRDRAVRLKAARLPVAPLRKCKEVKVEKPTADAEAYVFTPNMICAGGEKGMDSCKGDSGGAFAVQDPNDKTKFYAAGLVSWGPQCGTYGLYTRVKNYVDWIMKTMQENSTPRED
T1 sequence (P00736 18-705 partner): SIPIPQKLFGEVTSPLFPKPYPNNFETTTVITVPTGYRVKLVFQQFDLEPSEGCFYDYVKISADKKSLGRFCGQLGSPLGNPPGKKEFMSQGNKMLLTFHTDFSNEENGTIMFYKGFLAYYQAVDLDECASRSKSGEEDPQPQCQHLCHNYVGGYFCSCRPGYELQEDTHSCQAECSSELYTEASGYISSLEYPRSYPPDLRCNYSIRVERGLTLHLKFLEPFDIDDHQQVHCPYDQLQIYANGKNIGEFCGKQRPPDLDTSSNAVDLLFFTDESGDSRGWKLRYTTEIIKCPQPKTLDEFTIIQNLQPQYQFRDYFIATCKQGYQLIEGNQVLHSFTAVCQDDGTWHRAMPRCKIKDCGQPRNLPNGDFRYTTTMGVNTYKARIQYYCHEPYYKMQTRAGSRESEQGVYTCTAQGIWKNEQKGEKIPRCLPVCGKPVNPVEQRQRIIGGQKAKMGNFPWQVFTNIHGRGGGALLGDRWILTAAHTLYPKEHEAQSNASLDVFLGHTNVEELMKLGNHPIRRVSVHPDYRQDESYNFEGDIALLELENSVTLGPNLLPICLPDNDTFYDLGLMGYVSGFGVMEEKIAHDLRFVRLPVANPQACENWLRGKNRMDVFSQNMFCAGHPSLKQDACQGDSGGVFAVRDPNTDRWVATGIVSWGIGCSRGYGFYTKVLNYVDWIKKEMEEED
T1 sequence (P02745 23-245 partner): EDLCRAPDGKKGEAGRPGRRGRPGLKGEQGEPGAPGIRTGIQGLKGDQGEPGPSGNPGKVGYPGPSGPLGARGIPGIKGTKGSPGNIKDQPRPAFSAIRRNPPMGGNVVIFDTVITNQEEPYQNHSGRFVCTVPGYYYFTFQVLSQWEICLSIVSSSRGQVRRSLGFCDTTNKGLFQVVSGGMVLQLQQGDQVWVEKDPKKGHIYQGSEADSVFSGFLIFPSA
T1 sequence (P02746 28-253 partner): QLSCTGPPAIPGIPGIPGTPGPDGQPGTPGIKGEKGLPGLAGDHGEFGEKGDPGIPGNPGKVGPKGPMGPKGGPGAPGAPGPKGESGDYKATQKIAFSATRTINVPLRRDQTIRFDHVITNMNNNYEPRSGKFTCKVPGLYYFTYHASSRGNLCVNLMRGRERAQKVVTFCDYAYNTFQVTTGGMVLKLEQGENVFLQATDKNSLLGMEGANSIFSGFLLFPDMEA
T1 sequence (P02747 29-245 partner): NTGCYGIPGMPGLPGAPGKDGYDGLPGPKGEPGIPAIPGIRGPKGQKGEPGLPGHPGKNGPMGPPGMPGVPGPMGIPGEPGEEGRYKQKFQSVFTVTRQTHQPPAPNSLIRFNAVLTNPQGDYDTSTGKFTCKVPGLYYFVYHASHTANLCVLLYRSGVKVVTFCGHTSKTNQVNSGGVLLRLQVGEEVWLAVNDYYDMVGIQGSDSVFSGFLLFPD

For `O=C(Nc1ccc(C(=O)Nc2ccc(S(=O)(=O)[O-])c3cc(S(=O)(=O)[O-])cc(S(=O)(=O)[O-])c23)c(S(=O)(=O)[O-])c1)Nc1ccc(C(=O)Nc2ccc(S(=O)(=O)[O-])c3cc(S(=O)(=O)[O-])cc(S(=O)(=O)[O-])c23)c(S(=O)(=O)[O-])c1.[Na+].[Na+].[Na+].[Na+].[Na+].[Na+].[Na+].[Na+]` [8,8'-{Ureylenebis[(2-sulfo-4,1-phenylenecarbonyl)imino]}di-1,3,5-naphthalenetrisulfonic acid octasodium salt], in assay [1], the “C-Late 035* Wells” value is reported as “+1 Wells”. For the same compound, the change in vivo at 200 mg/kg was -32% in the assay with whole complement (setting [2]), -31% in the assay with whole complement (setting [3]) and -51% with whole complement (setting [4]). Also, in the assay on whole complement (200 mg/kg), the “In Vivo Activity (Guinea Pig) % Inhibition Intravenous 2 mins.” value is on record as -89%. The “In Vivo Activity (Guinea Pig) % Inhibition Intravenous 30 mins.” value with whole complement (200 mg/kg, 30 mins.) is given as -45%. The “In Vivo Activity (Guinea Pig) % Inhibition Intravenous 120 mins.” value with whole complement (200 mg/kg, 120 mins.) is -29%.
Regarding `Cc1ccc(NC(=O)Nc2ccc(C)c(C(=O)Nc3ccc(S(=O)(=O)[O-])c4cc(S(=O)(=O)[O-])cc(O)c34)c2)cc1C(=O)Nc1ccc(S(=O)(=O)[O-])c2cc(S(=O)(=O)[O-])cc(O)c12.[Na+].[Na+].[Na+].[Na+]` [4,4'-{Ureylenebis[(6-methyl-3,1-phenylenecarbonyl)imino]}-bis[5-hydroxy-1,7-naphthalenedisulfonic acid], tetrasodium salt], the “Shunt Inhibition 036* Wells” value in the assay on shunt pathway was “+2 Wells”.
Turning to `CC(=O)Nc1ccc2c(S(=O)(=O)O)cc(S(=O)(=O)O)cc2c1NC(=O)c1ccc(NC(=O)Nc2ccc(C(=O)Nc3c(NC(C)=O)ccc4c(S(=O)(=O)O)cc(S(=O)(=O)O)cc34)c(S(=O)(=O)O)c2)cc1S(=O)(=O)O` [5,5'-[Ureylenebis(2-sulfo-1,4-phenylenecarbonylimino)]bis[6-acetamido-1,3-naphthalenedisulfonic acid]hexasodium salt], at human C1, the “C1 026* Wells” value is reported as “+8 Wells”. Besides, the “C-Late 035* Wells” value in assay [1] is “N”. Moreover, the “Shunt Inhibition 036* Wells” value with shunt pathway was “+1 Wells”. The change in vivo at 200 mg/kg in the assay with whole complement (setting [5]) was -19%; in the assay with whole complement (setting [6]), 8%; with whole complement (setting [7]) it was 4%.
On to `O=C(Nc1cc(C(=O)O)cc(C(=O)Nc2ccc(S(=O)(=O)O)c3cc(S(=O)(=O)O)cc(O)c23)c1)Nc1cc(C(=O)O)cc(C(=O)Nc2ccc(S(=O)(=O)O)c3cc(S(=O)(=O)O)cc(O)c23)c1` [3,3'-Ureylenebis{5-[(8-hydroxy-4,6-disulfo-1-naphthenyl)aminocarbonyl]-benzoic acid}tetrasodium salt], for which the “C1 026* Wells” value at human C1 is reported as “+4 Wells”. Besides, in the assay on shunt pathway, the “Shunt Inhibition 036* Wells” value is “+2 Wells”. For the same compound, the change in vivo at 200 mg/kg with whole complement (setting [7]) was -94%.
In the case of `O=C(Nc1cc(C(=O)O)cc(C(=O)Nc2cc(S(=O)(=O)O)cc3cc(S(=O)(=O)O)cc(S(=O)(=O)O)c23)c1)Nc1cc(C(=O)O)cc(C(=O)Nc2cc(S(=O)(=O)O)cc3cc(S(=O)(=O)O)cc(S(=O)(=O)O)c23)c1` [5,5'-Ureylenebis[N-(3,6,8-trisulfo-1-naphthyl)]isophthalamic acid octasodium salt], at human C1, the “C1 026* Wells” value was “+10 Wells”. In addition, the “C-Late 035* Wells” value in assay [1] is listed as “N”. In the assay with shunt pathway, the “Shunt Inhibition 036* Wells” value is “+2 Wells”. Also, the change in vivo at 200 mg/kg was -37% in the assay with whole complement (setting [5]), -42% in the assay on whole complement (setting [6]) and -48% in the assay on whole complement (setting [7]). Also, in the assay with whole complement (200 mg/kg), the “In Vivo Activity (Guinea Pig) % Inhibition Intravenous 2 mins.” value is reported as -92%. Moreover, the “In Vivo Activity (Guinea Pig) % Inhibition Intravenous 30 mins.” value in the assay on whole complement (200 mg/kg, 30 mins.) is given as -44%. In addition, the “In Vivo Activity (Guinea Pig) % Inhibition Intravenous 120 mins.” value in the assay with whole complement (200 mg/kg, 120 mins.) was -39%.
Turning to `COC(=O)c1cc(NC(=O)Nc2cc(C(=O)Nc3ccc(S(=O)(=O)O)c4cc(S(=O)(=O)O)cc(S(=O)(=O)O)c34)cc(C(=O)OC)c2)cc(C(=O)Nc2ccc(S(=O)(=O)O)c3cc(S(=O)(=O)O)cc(S(=O)(=O)O)c23)c1` [5,5'-Ureylenebis[N-(4,6,8-trisulfo-1-naphthyl)isophthalamic acid]dimethyl ester hexasodium salt], on human C1, the “C1 026* Wells” value is listed as “+4 Wells”. In assay [1], the “C-Late 035* Wells” value is recorded as “+1 Wells”. Further, the “Shunt Inhibition 036* Wells” value with shunt pathway was “+1 Wells”. For the same compound, the change in vivo at 200 mg/kg in the assay with whole complement (setting [5]) was -14%; in the assay on whole complement (setting [6]), -17%; with whole complement (setting [7]), -25%.
As for `O=C(Nc1ccc(C(=O)Nc2cc(S(=O)(=O)[O-])cc3ccc(S(=O)(=O)[O-])cc23)c(S(=O)(=O)[O-])c1)Nc1ccc(C(=O)Nc2cc(S(=O)(=O)[O-])cc3ccc(S(=O)(=O)[O-])cc23)c(S(=O)(=O)[O-])c1.[Na+].[Na+].[Na+].[Na+].[Na+].[Na+]` [4,4'-{Ureylenebis[(2-sulfo-4,1-phenylenecarbonyl)imino]}-di-2,6-naphthalenedisulfonic acid hexasodium salt], the “C1 026* Wells” value on human C1 is listed as “+5 Wells”. Also, the “C-Late 035* Wells” value in assay [1] was “N”. The “Shunt Inhibition 036* Wells” value in the assay on shunt pathway is listed as “N”. Moreover, the change in vivo at 200 mg/kg was -3% in the assay with whole complement (setting [2]), -4% in the assay with whole complement (setting [3]) and -11% in the assay on whole complement (setting [4]).
Regarding `O=C(Nc1ccc(C(=O)Nc2ccc(S(=O)(=O)[O-])c3cc(S(=O)(=O)[O-])cc(O)c23)c(S(=O)(=O)[O-])c1)Nc1ccc(C(=O)Nc2ccc(S(=O)(=O)[O-])c3cc(S(=O)(=O)[O-])cc(O)c23)c(S(=O)(=O)[O-])c1.[Na+].[Na+].[Na+].[Na+].[Na+].[Na+]` [4,4'-Ureylenebis[(2-sulfo-4,1-phenylenecarbonyl)imino]bis[5-hydroxy-1,7-naphthalenedisulfonic acid] hexasodium salt], the “C1 026* Wells” value at human C1 is recorded as “+7 Wells”. The “C-Late 035* Wells” value in assay [1] is listed as “N”. Also, in the assay with shunt pathway, the “Shunt Inhibition 036* Wells” value is reported as “+5 Wells”. In addition, the change in vivo at 200 mg/kg was 1% with whole complement (setting [2]), -3% in the assay with whole complement (setting [3]) and -24% with whole complement (setting [4]).
For the compound `O=C(Nc1ccc(C(=O)Nc2cc3ccccc3cc2C(=O)[O-])c(S(=O)(=O)[O-])c1)Nc1ccc(C(=O)Nc2cc3ccccc3cc2C(=O)[O-])c(S(=O)(=O)[O-])c1.[Na+].[Na+].[Na+].[Na+]` [3,3'-{Ureylenebis[(2-sulfo-4,1-phenylene)carbonylimino]}di-2-naphthoic acid tetrasodium salt], on human C1, the “C1 026* Wells” value is “N”. Besides, the “C-Late 035* Wells” value in assay [1] is on record as “+3 Wells”. Also, the “Shunt Inhibition 036* Wells” value with shunt pathway is “N”.
On to `O=C(Nc1ccc(S(=O)(=O)[O-])c(C(=O)Nc2cc(S(=O)(=O)[O-])cc3cc(S(=O)(=O)[O-])cc(S(=O)(=O)[O-])c23)c1)Nc1ccc(S(=O)(=O)[O-])c(C(=O)Nc2cc(S(=O)(=O)[O-])cc3cc(S(=O)(=O)[O-])cc(S(=O)(=O)[O-])c23)c1.[Na+].[Na+].[Na+].[Na+].[Na+].[Na+].[Na+].[Na+]` [8,8'-[Carbonylbis[imino[(-6-sulfo-3,1-phenylene)]carbonylimino]]-bis-1,3,6-naphthalenetrisulfonic acid octasodium salt], for which the “C1 026* Wells” value on human C1 is “+7 Wells”. Also, in the assay on shunt pathway, the “Shunt Inhibition 036* Wells” value is “+1 Wells”. Moreover, the change in vivo at 200 mg/kg in the assay on whole complement (setting [2]) was -23%; in the assay with whole complement (setting [3]), -58%; in the assay on whole complement (setting [4]) it was -71%.
